In one data set the test system is RPMI 8226 cells. Put plainly: Cell growth inhibition (resazurin, 48 hours), RPMI 8226. (In general: Alamar Blue is a resazurin reagent that responds to reducing activity.)
The subject of a further data set is U266 cells. Kind of data set: Cell growth inhibition (resazurin, 48 hours), U266.
In data set [1] the target is T1, chymotrypsin-like activity of rabbit muscle 20S proteasomes (Oryctolagus cuniculus, UniProt G1T4Q9).
T1 sequence (G1T4Q9 1-263): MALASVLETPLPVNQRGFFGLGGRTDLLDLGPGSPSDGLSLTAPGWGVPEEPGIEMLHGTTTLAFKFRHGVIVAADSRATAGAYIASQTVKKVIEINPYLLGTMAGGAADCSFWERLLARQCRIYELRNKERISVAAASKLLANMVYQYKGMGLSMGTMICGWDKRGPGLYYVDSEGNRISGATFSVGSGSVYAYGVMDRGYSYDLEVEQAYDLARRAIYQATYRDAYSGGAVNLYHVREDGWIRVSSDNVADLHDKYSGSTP
Put plainly: Inhibition of chymotrypsin-like activity of purified rabbit muscle 20S proteasome (suc-LLVY-AMC). Type of data set: biochemical. The conditions noted are these: Table 3; mean EC50; purified rabbit 20S proteasomes; read-out: EC50 Values, Chymotrypsin-like. On the procedure:
This peptide substrate is specific for the chymotrypsin-like enzyme activity of the proteasome.
Omuralide was prepared as a 10 mM stock in DMSO and stored in 5 μL aliquots at −80° C. […] The assay measures the hydrolysis of Suc-LLVY-AMC into Suc-LLVY and AMC. The released coumarin (AMC) was measured fluorometrically by using λex=390 nm and λem=460 nm. The assays were performed in a microtiter plate (Corning 3904), and followed kinetically with measurements every five minutes. The instrument used was a Thermo Lab Systems Fluoroskan, with the incubation chamber set to 37° C. The assays were performed according to the manufacturer's protocol, with the following changes. The proteasome was activated as described with SDS, and held on ice prior to the assay. […] Ten microliters of each dose were added in triplicate to the assay plate, and 190 μL of the activated proteasome was added and mixed. The samples were pre-incubated in the Fluoroskan for 5 minutes at 37° C. Substrate was added and the kinetics of AMC were followed for one hour.

Data set [2] concerns the target PGPH (caspase-like) activity of rabbit muscle 20S proteasomes (Oryctolagus cuniculus, UniProt A0A5F9DQW2). Kind of data set: Inhibition of caspase-like (PGPH) activity of 20S proteasome (Z-LLE-AMC). The conditions noted are these: Table 3; mean EC50; purified rabbit 20S proteasomes. Type of data set: biochemical. On the procedure: A commercially available fluorogenic substrate specific for the PGPH activity was used instead of the chymotrypsin substrate supplied in the proteasome assay kit described above.
The substrate Z-LLE-AMC was prepared as a 20 mM stock solution in DMSO, stored at −20° C. The source of the proteasomes was the commercially available kit from Calbiochem (Cat. #539158). As with the chymotrypsin substrate, the proteasome can cleave Z-LLE-AMC into Z-LLE and free AMC. The activity can then be determined by measuring the fluorescence of the released AMC (λex=390 nm and λem=460 nm). The proteasomes were activated with SDS and held on ice as per manufacturer's recommendation. […] The series was diluted 20-fold with assay buffer and preincubated with the proteasomes as described for the chymotrypsin-like activity. After addition of substrate, the samples were incubated at 37° C., and release of the fluorescent AMC was monitored in a fluorimeter. All data were collected and plotted as the mean of triplicate points. […] As before, the model chosen was a sigmoidal dose-response, with a variable slope.

The target in data set [3] is T2, trypsin-like activity of purified rabbit 20S proteasomes (Oryctolagus cuniculus, UniProt G1SWK8).
T2 sequence (G1SWK8 1-271): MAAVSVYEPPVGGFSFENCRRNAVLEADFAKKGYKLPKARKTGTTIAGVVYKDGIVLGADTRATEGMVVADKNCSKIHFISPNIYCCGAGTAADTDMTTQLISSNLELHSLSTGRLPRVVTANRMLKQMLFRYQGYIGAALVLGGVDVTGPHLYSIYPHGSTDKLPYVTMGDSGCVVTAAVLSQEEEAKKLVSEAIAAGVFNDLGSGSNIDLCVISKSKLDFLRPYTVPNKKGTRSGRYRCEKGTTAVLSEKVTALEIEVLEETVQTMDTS
Particulars: under the conditions tested.

In data set [4] the test system is LeTx-induced cytotoxicity of RAW264.7 cells. Kind of data set: cells. The conditions noted are these: Mus musculus, RAW264.7, read-out: EC50 (nM), inhibition of RAW 264.7 cell cytotoxicity mediated by anthrax lethal toxin.
For data set [5], the target named is T2, trypsin-like activity of purified rabbit 20S proteasomes. Put plainly: biochemical.
Data set [6] has as its system NF-κB-mediated luciferase activity in HEK293 NF-κB/Luc cells. Kind of data set: NF-κB-mediated luciferase reporter gene assay. The class given is cell-based, human. The conditions noted are these: pretreatment of NF-κB/Luc 293 cells. On the procedure: The HEK293 NF-κB/luciferase reporter cell line is a derivative of the human embryonic kidney cell line (ATCC; CRL- 1573) and carries a luciferase reporter gene under the regulation of 5×NF-κB binding sites. […] When performing the luciferase assay, the DMEM basal medium was replaced with phenol-red free DMEM basal medium and the G418 was omitted.
For NF-κB-mediated luciferase assays, HEK293 NF-κB/luciferase cells were seeded at 1.5×10^4 cells/well in 90 μl phenol-red free DMEM complete medium into Corning 3917 white opaque-bottom tissue culture plates. […] This dilution series was further diluted 40× in appropriate culture medium and ten μl aliquots were added to the test wells in triplicate resulting in final test concentrations ranging from 1 μM to 320 pM. […] For Formula II-19, a 127 μM starting dilution was made in 100% DMSO and the final test concentrations ranging from 317 nM to 0.1 nM. […] After 1 hr pretreatment, 10 μl of a 50 ng/ml TNF-α solution, prepared in the phenol-red free DMEM medium was added, and the plates were incubated for an additional 6 hr.
NF-κB inducible luciferase activity was measured at 6 hours.
The HEK293 NF-κB/luciferase reporter cell line is a derivative of the human embryonic kidney cell line (ATCC; CRL-1573) and carries a luciferase reporter gene under the regulation of 5×NF-κB binding sites. […] When performing the luciferase assay, the DMEM basal medium was replaced with phenol-red free DMEM basal medium and the G418 was omitted.
For NF-κB-mediated luciferase assays, HEK293 NF-κB/luciferase cells were seeded at 1.5×10^4 cells/well in 90 μl phenol-red free DMEM complete medium into Corning 3917 white opaque-bottom tissue culture plates. For Formula II-2, Formula II-4 and Formula II-5A, a 400 μM starting dilution was made in 100% DMSO and this dilution was used to generate a 8-point half log dilution series. This dilution series was further diluted 40× in appropriate culture medium and ten μl aliquots were added to the test wells in triplicate resulting in final test concentrations ranging from 1 μM to 320 pM. […] After 1 hr pretreatment, 10 μl of a 50 ng/ml TNF-α solution, prepared in the phenol-red free DMEM medium was added, and the plates were incubated for an additional 6 hr.
The relative luciferase units (RLU) were measured by using a Fusion microplate fluorometer (Packard Bioscience).

In another data set the test system is HT-29 cells. Kind of data set: Cell growth inhibition (resazurin, 48 hours), HT-29. Particulars: Homo sapiens, HT-29. Type of data set: cell-based.
The subject of another data set is MDA-MB-231 cells. Kind of data set: Cell growth inhibition (resazurin, 48 hours), MDA-MB-231. Type of data set: cell-based. The conditions noted are these: Homo sapiens, MDA-MB-231.
The next data set deals with NCI-H292 cells. Put plainly: Cell growth inhibition (resazurin, 48 hours), NCI-H292. The class given is cell-based, human. Particulars: Homo sapiens, NCI-H292, Table 13; NCI-H292.
A further data set has as its system PC-3 cells. Put plainly: Cell growth inhibition (resazurin, 48 hours), PC-3. Type of data set: cell-based, human. The conditions noted are these: Homo sapiens, PC-3.
The next data set deals with MES-SA cells. Kind of data set: Cell growth inhibition (resazurin, 48 hours), MES-SA.
Another data set concerns MES-SA/Dx5 cells. Kind of data set: cells.
Where [7] appears, read: Homo sapiens, RPMI-8226, read-out: RPMI 8226 EC50 (nM), Table 15, mean EC50.
[8] abbreviates: Homo sapiens, U-266, read-out: U266 EC50 (nM), Table 15, mean EC50.

Like-named read-outs stand apart in the source and are kept apart here.

Sequence of PGPH (caspase-like) activity of rabbit muscle 20S proteasomes (A0A5F9DQW2 1-212): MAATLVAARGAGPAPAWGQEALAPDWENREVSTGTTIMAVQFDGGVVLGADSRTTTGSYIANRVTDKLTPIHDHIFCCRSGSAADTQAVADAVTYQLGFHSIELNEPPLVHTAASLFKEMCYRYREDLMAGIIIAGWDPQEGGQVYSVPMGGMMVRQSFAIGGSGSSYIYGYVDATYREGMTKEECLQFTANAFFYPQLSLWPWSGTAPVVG

`CC12OC(=O)C1(C(=O)C1CCCCC1)NC(=O)C2CCCl` (stereo not drawn) [Formula II-8C]: the EC50 with RPMI 8226 cells (setting [7]) and in the data set with U266 cells (setting [8]) was greater than 20000 nM throughout.

For `CC12OC(=O)C1(C(=O)C1C=CCCC1)NC(=O)C2CCCl` (stereo not drawn) [Formula II-13C], the 50% effective concentration (EC50) (as a rule, the concentration that produces a half-maximal response) was 8200 nM in [1]; greater than 20000 nM in data set [2]; greater than 20000 nM in the data set on RPMI 8226 cells (setting [7]); greater than 330 nM in [4]; 10700 nM in data set [5]; greater than 20000 nM in the data set with U266 cells (setting [8]). Also, the “inhibit the trypsin-like activity of the 20S proteasome” value (“inhibit the trypsin-like activity” for short) in data set [3] was “able to inhibit”.

Turning to `C[C@@]12OC(=O)[C@]1([C@@H](O)[C@@H]1C=CCCC1)NC(=O)[C@@H]2CCI` [Formula II-19], the EC50 in data set [1] was 3 nM; in data set [2], 573 nM; in the data set with HT-29 cells, 13 nM; in the data set on MDA-MB-231 cells, 17 nM; in the data set with NCI-H292 cells it was 31 nM; in the data set with PC-3 cells it was 27 nM. The EC50 stood at 5.9 nM with RPMI 8226 cells (Homo sapiens, RPMI-8226, Table 13, RPMI 8226); 6.5 nM in the data set with RPMI 8226 cells (setting [7]); 7.1 nM in the data set with RPMI 8226 cells (Table 13, RPMI 8226); 13 nM in data set [5]; 3.2 nM with U266 cells (Homo sapiens, U-266, Table 13, U266); 3.3 nM in the data set with U266 cells (setting [8]). For the same compound, the EC50 in the data set with U266 cells (Table 13, U266) is 3.4 nM. Besides, the “luciferase activity upon TNF-α stimulation” value in data set [6] is reported as “dose-dependent decrease”. The “inhibit the trypsin-like activity” value in data set [3] was “able to inhibit”.

Take `C[C@H]1C(=O)N[C@@]2([C@@H](O)[C@@H]3C=CCCC3)C(=O)O[C@@]12C` [Formula II-20]: the EC50 in data set [1] came out at 5 nM; in [2], 1400 nM; in the data set with RPMI 8226 cells (setting [7]), 10500 nM; in [5], 318 nM; in the data set with U266 cells (setting [8]), 3810 nM. Further, the “luciferase activity upon TNF-α stimulation” value in data set [6] is “dose-dependent decrease”. Further, in data set [3], the “inhibit the trypsin-like activity” value is on record as “able to inhibit”.

In the case of `C[C@@]12OC(=O)[C@]1([C@@H](O)[C@@H]1C=CCCC1)NC(=O)[C@@H]2CCO` [Formula II-21], the EC50 worked out at 7 nM in data set [1], 2600 nM in [2] and 720 nM in data set [5]. In [6], the “luciferase activity upon TNF-α stimulation” value is “dose-dependent decrease”. Moreover, the “inhibit the trypsin-like activity” value in data set [3] is given as “able to inhibit”.

Turning to `CCC(=O)OCC[C@H]1C(=O)N[C@@]2([C@@H](O)[C@@H]3C=CCCC3)C(=O)O[C@@]12C` [Formula II-22], the EC50 was 5 nM in [1], 1300 nM in data set [2] and 308 nM in [5]. For the same compound, the “luciferase activity upon TNF-α stimulation” value in data set [6] is on record as “dose-dependent decrease”. The “inhibit the trypsin-like activity” value in data set [3] is “able to inhibit”.

On to `CC[C@@]12OC(=O)[C@]1([C@@H](O)[C@@H]1C=CCCC1)NC(=O)[C@@H]2CCCl` [Formula II-24C], for which the concentration giving a half-maximal response (EC50) was 2200 nM in data set [1], greater than 20000 nM in [2] and 3200 nM in data set [5]. Also, in data set [6], the “luciferase activity upon TNF-α stimulation” value was “dose-dependent decrease”. Besides, the “inhibit the trypsin-like activity” value in data set [3] is reported as “able to inhibit”.

Turning to `C[C@@]12OC(=O)[C@]1([C@@H](O)[C@H]1CCC[C@H](Cl)[C@H]1O)NC(=O)[C@@H]2CCCl` [Formula IV-3C], the EC50 was 7800 nM in [1]; greater than 20000 nM in [2]; greater than 20000 nM with RPMI 8226 cells (setting [7]); greater than 330 nM in data set [4]; 8020 nM with U266 cells (setting [8]).

With `CC(=O)O[C@H]1C(=O)[C@@]2(C)[C@H]([C@H](OC(=O)c3ccccc3)[C@]3(O)C[C@H](OC(=O)[C@H](O)[C@@H](NC(=O)c4ccccc4)c4ccccc4)C(C)=C1C3(C)C)[C@]1(OC(C)=O)CO[C@@H]1C[C@@H]2O` [Paclitaxel, reference compound], in the data set on MES-SA cells, the “% cytotoxicity, mean ± SD” value came out at 63 ± 7%. The concentration for a half-maximal effect (EC50) in the data set on MES-SA cells (Homo sapiens, MES-SA, read-out: EC50 (nM) MES-SA, Table 16) came to 5.6 nM; in the data set with MES-SA cells (Homo sapiens, MES-SA, read-out: EC50 (nM), mean, Table 7, MES-SA), 5 ± 2 nM; in the data set on MES-SA cells (read-out: EC50 (nM) MES-SA, Table 16) it was 4.6 nM; in the data set with MES-SA/Dx5 cells (Homo sapiens, MES-SA/Dx5, read-out: EC50 (nM), mean ± SD, Table 7, MES-SA/Dx5), 2040 ± 150 nM. The Fold change with MES-SA/Dx5 cells (Table 16, ratio of EC50 values (MES-SA/Dx5:MES-SA)) came out at 798 fold.

The values are drawn from patent US20050049294A1, “Methods of using [3.2.0] heterocyclic compounds and analogs thereof” (priority 2003, published 2005).
